Measured values: US8507656B2, “Stabilized angiopoietin-2 antibodies and uses thereof” (MedImmune Limited, priority 2008, dated 2013)
“Also recorded” adds a separate entry of the source. Like-named read-outs stand apart in the source and are kept apart here.

What was measured:
H460 xenograft tumors [1] = assay type: in vivo; settings: 3.19.3 10 mg/kg 2×wk i.p., AZD4877 10 mg/kg q4dx2 i.p., combination of both
Protocol: The anti-tumor activity of 3.19.3 was evaluated in combination with AZD4877 in the
H460 xenograft model of lung cancer. H460 cells were cultured in flasks as routine until the cells reached sub-confluence. Cell suspensions containing approximately 3×10E6 cells were injected subcutaneously into the right flank of male NCr nu/nu mice. When the tumor volume reached 200 mm^3, the mice were randomized in treatment groups of 8-10 mice and the treatments were initiated. 3.19.3 (10 mg/kg) in saline was injected intraperitoneally, twice per week for 2 weeks. AZD4877 (10 mg/kg) was administered by intraperitoneal administration following a q4d schedule. The dimensions of each tumor and body weights were measured at least twice per week. The volume of the tumor was calculated as: Volume=Length×(Width)×0.5 (cm^3).

[2] = system: MDA-MB-231 xenograft tumors; assay: MDA-MB-231 orthotopic breast cancer xenograft model; assay type: in vivo; settings: 3.19.3 10 mg/kg 2×wk i.p., AZD6495 30 mg/kg bid p.o. 18 d, combination of both
Protocol: The anti-tumor activity of the anti-Angiopoietin-2 monoclonal antibody 3.19.3 in combination with the small molecule CSF1R tyrosine kinase inhibitor AZD6495 was evaluated in a xenograft model of human breast carcinoma using the MDA-MB-231 cell line (FIG. 5a).
Breast adenocarcinoma MDA-MB-231 cells were cultured in flasks as routine until the cells reach sub-confluence. Immunodeficient 7-10 week old female nude mice were orthotopically implanted with 8×10^6 MDA-MB-231 cells suspended 1:1 in Matrigel into the mammary fat pad. The mice were then randomized into cohorts containing 10 mice once the tumors reached approximately 100 mm^3. The mice were treated by intraperitoneally (IP) injection with mAb 3.19.3 (10 mg/kg) twice per week for 3 weeks thereafter, or by oral administration of AZD6495 (30 mg/kg) following bid dosing for 18 days. […] The body weights of each animal, and the dimensions of each tumor were measured twice per week. The volume of the tumor was calculated as: Volume=Length×(Width)^2×0.5 cm^3, or by bilateral Vernier caliper measurement and, taking length to be the longest diameter across the tumor and width the corresponding perpendicular, calculated using the formula (π/6)×(length×width)×√(length×width). Growth inhibition from the start of treatment was assessed by comparison of the differences in tumor volume between control and treated groups.

MCF7 xenograft tumors = assay: MCF7 breast cancer xenograft model; assay type: in vivo; settings: 3.19.3 10 mg/kg 2×wk i.p., AZD6495 30 mg/kg bid p.o. 18 d, combination of both
Protocol: The anti-tumor activity of the anti-Angiopoietin-2 monoclonal antibody 3.19.3 in combination with the small molecule CSF1R tyrosine kinase inhibitor AZD6495 (4-[(2,4-difluorophenyl)amino]-7-ethoxy-6-(4-methylpiperazin-1-yl)quinoline-3-carboxamide) was evaluated in a xenograft model of human breast carcinoma using the MCF7 cell line (FIG. 4a).
Materials and Methods: Breast carcinoma MCF7 cells were cultured in flasks as routine until the cells reach sub-confluence. Immunodeficient 7-10 week old male NCr-nude mice were subcutaneously implanted with 8×10^6 MCF7 cells suspended 1:1 in Matrigel in the right flank. […]
The mice were then randomized into cohorts containing 15 mice once the tumors reached approximately 100 mm^3. […] The body weights of each animal, and the dimensions of each tumor were measured twice per week. The volume of the tumor was calculated as: Volume=Length×(Width)^2×0.5 cm^3, or by bilateral Vernier caliper measurement and, taking length to be the longest diameter across the tumor and width the corresponding perpendicular, calculated using the formula (π/6)×(length×width)×√(length×width). Growth inhibition from the start of treatment was assessed by comparison of the differences in tumor volume between control and treated groups.

Calu6 xenograft tumors = assay type: in vivo; settings: 3.19.3 10 mg/kg 2×wk i.p., Docetaxel 15 mg/kg/week i.v., combination of both
Protocol: (§1) The anti-tumor activity of 3.19.3 was evaluated in combination with Docetaxel in the Calu6 xenograft model of lung cancer. Calu6 cells were cultured in flasks as routine until the cells reached sub-confluence. Cell suspensions containing approximately 3×10E6 cells were injected subcutaneously into the flank of female Swiss nude mice. When the tumor volume reached 200 mm^3, the mice were randomized in treatment groups of 8-10 mice and the treatments were initiated. 3.19.3 (10 mg/kg) in saline was injected intraperitoneally, twice per week for 2 weeks. Docetaxel (15 mg/kg) was administered by intravenous administration following a weekly schedule. The dimensions of each tumor and body weights were measured at least twice per week. The volume of the tumor was calculated as: Volume=Length×(Width)×0.5 (cm^3).

Colo205 xenograft tumors = assay: Colo205 xenograft model of colorectal cancer; assay type: in vivo; settings: 3.19.3 10 mg/kg 2×wk i.p., Gemcitabine 50 mg/kg q3dx2 i.v., combination of both
Protocol: as §1, with “Gemcitabine” for “Docetaxel”, “Colo205” for “Calu6”, “colorectal” for “lung”, “Gemcitabine (50” for “Docetaxel (15”, “q3d” for “weekly”, “(cm^3). […] The % tumor growth inhibition achieved is as follows: […]” for “(cm^3).”

HT-29 xenograft tumors = assay: HT-29 xenograft model of colorectal cancer; assay type: in vivo; settings: 3.19.3 10 mg/kg 2×wk i.p., Irinotecan 35 mg/kg/week i.v., combination of both
Protocol: as §1, with “Irinotecan” for “Docetaxel”, “HT-29” for “Calu6”, “colorectal” for “lung”, “Irinotecan (35” for “Docetaxel (15”, “(cm^3). […] The % tumor growth inhibition achieved is as follows: […]” for “(cm^3).”

H460 xenograft tumors [3] = assay type: in vivo; settings: 3.19.3 10 mg/kg 2×wk i.p., Oxaliplatin 5 mg/kg/week i.p., combination of both
Protocol: as §1, with “Oxaliplatin” for “Docetaxel”, “H460” for “Calu6”, “Oxaliplatin (5” for “Docetaxel (15”, “intraperitoneal” for “intravenous”

Tie2 = Tie2 (Homo sapiens, UniProt Q02763); settings: Maisonpierre et al., Science 277:55-60 (1997); read-out: affinity (Kd) for Tie2; cited from earlier work
[4] = system: glucose 6 phosphate isomerase (G6PI) arthritis; assay: G6PI arthritis disease model, therapeutic; assay type: in vivo, male DBA/1J mice; settings: after onset of clinical disease, MEDI1/5 alone, etanercept both doses
Protocol: The effect of treatment with MEDI 1/5 with or without etanercept was evaluated following onset of clinical disease in the glucose 6 phosphate isomerase (G6PI) arthritis disease model. G6PI-induced arthritis was induced in male DBA/1J mice and animals dosed therapeutically with test treatments.
Materials and Methods: The mice in this study were prepared similarly as presented in Example 12.
Dosing: This was a rolling admissions study: once an animal reached a clinical score of 3.5 to 5.0, it was randomly assigned to treatment groups (as outlined below) and dosing began. The day of initial dosing became study day 0 for that animal. Treatment groups were similar to those presented in Example 12.
Termination: Study was terminated 12 days post treatment initiation. No further endpoints were assessed on these animals.

[5] = system: glucose 6 phosphate isomerase (G6PI) arthritis; assay: G6PI arthritis disease model, prophylactic; assay type: in vivo, male DBA/1J mice

Tie2, sequence (Q02763 23-1124, species assumed): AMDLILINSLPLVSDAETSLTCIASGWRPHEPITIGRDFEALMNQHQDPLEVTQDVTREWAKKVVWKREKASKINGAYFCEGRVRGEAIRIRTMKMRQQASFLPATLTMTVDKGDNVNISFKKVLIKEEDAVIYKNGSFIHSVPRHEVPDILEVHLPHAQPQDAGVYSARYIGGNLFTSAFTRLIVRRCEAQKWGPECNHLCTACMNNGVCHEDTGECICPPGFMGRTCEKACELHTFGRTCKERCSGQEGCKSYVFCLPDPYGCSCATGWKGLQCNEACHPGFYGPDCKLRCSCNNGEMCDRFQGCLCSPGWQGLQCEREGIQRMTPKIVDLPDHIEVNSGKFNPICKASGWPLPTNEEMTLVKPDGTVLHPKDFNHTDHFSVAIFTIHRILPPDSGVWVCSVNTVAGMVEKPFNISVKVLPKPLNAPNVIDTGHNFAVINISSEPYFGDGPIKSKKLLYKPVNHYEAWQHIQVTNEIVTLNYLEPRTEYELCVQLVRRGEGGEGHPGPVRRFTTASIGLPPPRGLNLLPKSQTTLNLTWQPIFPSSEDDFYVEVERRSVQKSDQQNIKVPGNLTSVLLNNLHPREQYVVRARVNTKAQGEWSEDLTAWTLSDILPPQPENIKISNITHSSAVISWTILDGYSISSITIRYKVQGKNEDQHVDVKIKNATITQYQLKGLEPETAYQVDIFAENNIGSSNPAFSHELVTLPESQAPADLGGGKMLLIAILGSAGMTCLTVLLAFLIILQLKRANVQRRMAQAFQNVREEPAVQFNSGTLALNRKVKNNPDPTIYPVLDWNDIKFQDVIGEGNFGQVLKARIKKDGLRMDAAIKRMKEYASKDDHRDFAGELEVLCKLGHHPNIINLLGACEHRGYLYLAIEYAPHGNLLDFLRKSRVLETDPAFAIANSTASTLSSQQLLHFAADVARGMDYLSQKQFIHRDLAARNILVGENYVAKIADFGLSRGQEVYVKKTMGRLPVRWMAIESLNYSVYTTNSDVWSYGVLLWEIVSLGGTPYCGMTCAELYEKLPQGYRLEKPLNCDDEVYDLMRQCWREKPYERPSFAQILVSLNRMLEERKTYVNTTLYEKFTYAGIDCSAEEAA

Cc1ccc(C(=O)N(CCCN)C(c2nc3snc(C)c3c(=O)n2Cc2ccccc2)C(C)C)cc1 (centres unmarked) [AZD4877]
% tumor growth inhibition (H460 xenograft tumors [1]): 50%

CCOc1cc2ncc(C(N)=O)c(Nc3ccc(F)cc3F)c2cc1N1CCN(C)CC1 [AZD6495, 4-[(2,4-difluorophenyl)amino]-7-ethoxy-6-(4-methylpiperazin-1-yl)quinoline-3-carboxamide]
% tumor growth inhibition [2]: 25% | % tumor growth inhibition (MCF7 xenograft tumors): 32%

CC(=O)O[C@@]12CO[C@@H]1C[C@H](O)[C@@]1(C)C(=O)[C@H](O)C3=C(C)[C@@H](OC(=O)[C@H](O)[C@@H](NC(=O)OC(C)(C)C)c4ccccc4)C[C@@](O)([C@@H](OC(=O)c4ccccc4)[C@H]21)C3(C)C [Docetaxel]
% tumor growth inhibition (Calu6 xenograft tumors): 43%

Nc1ccn([C@@H]2O[C@H](CO)[C@@H](O)C2(F)F)c(=O)n1 [Gemcitabine]
% tumor growth inhibition (Colo205 xenograft tumors): 8%

CCc1c2c(nc3ccc(OC(=O)N4CCC(N5CCCCC5)CC4)cc13)-c1cc3c(c(=O)n1C2)COC(=O)[C@]3(O)CC [Irinotecan]
% tumor growth inhibition (HT-29 xenograft tumors): 56%

O=C1[O][Pt]2([NH][C@@H]3CCCC[C@H]3[NH]2)[O]C1=O [Oxaliplatin]
% tumor growth inhibition (H460 xenograft tumors [3]): 35%

Ang-2: angiopoietin, ligand of Tie2; antigen of the antibodies
Kd (Tie2): 3 nM

etanercept
clinical signs of disease progression (arthritic score) (in words) [4]: no effect on disease progression | % Disease free joints ([5]; 1 mg/kg etanercept, 1 mg/kg): 22% | % Disease free joints ([5]; 4 mg/kg etanercept, 4 mg/kg): 53% | % Disease free joints ([5]; 4 mg/kg etanercept, listed as enbrel, 4 mg/kg): 53% | clinical signs of disease progression (arthritic score) (in words) ([5]; single agents): Reductions in clinical signs of disease progression; also recorded: reduction

B1: Ang-1: angiopoietin, ligand of Tie2 (protein, UniProt Q15389 16-498, looked up)
Angiopoietin-1: HIGCSNQRRSPENSGRRYNRIQHGQCAYTFILPEHDGNCRESTTDQYNTNALQRDAPHVEPDFSSQKLQHLEHVMENYTQWLQKLENYIVENMKSEMAQIQQNAVQNHTATMLEIGTSLLSQTAEQTRKLTDVETQVLNQTSRLEIQLLENSLSTYKLEKQLLQQTNEILKIHEKNSLLEHKILEMEGKHKEELDTLKEEKENLQGLVTRQTYIIQELEKQLNRATTNNSVLQKQQLELMDTVHNLVNLCTKEGVLLKGGKREEEKPFRDCADVYQAGFNKSGIYTIYINNMPEPKKVFCNMDVNGGGWTVIQHREDGSLDFQRGWKEYKMGFGNPSGEYWLGNEFIFAITSQRQYMLRIELMDWEGNRAYSQYDRFHIGNEKQNYRLYLKGHTGTAGKQSSLILHGADFSTKDADNDNCMCKCALMLTGGWWFDACGPSNLNGMFYTAGQNHGKLNGIKWHYFKGPSYSLRSTTMMIRPLDF
Kd (Tie2): 3 nM
